The nature of the assay: two rounds of testing on a patient with ciclesonide administered by the oral inhalation / nasal exhalation method. In kind it is in vivo. Particulars: one patient; two sprays of 200 micrograms aerosolized ciclesonide, four to six oral inhalations each followed by nasal exhalation, morning and evening for two weeks; FIG. 3 device. The text has this: The Applicant has performed two rounds of testing on a patient suffering from post-nasal drip and upper laryngeal syndrome with an interval of two weeks between the rounds, each round consisting in administering a therapeutically effective dose of ciclesonide using the method of the present invention. […] In some embodiments, the therapeutically effective dose of ciclesonide for the treatment of upper airway cough syndrome is from 25 to 800 micrograms. Use of ciclesonide for the treatment of upper airway cough syndrome provides the advantage of avoiding fungal infections typically associated with administration of corticosteroid in the posterior nasal region, pharynx and the larynx.
In conducting the rounds of testing, the Applicant used the embodiment of the oral delivery device of the present invention shown in FIG. 3. […] It should be noted that in some embodiments, the effective volume is greater or smaller than 375 milliliters. In operation, the patient released two sprays of aerosolized ciclesonide into the oral delivery device, each one of the sprays containing 200 micrograms of ciclesonide, and performed four to six oral inhalations, each one of the inhalations being followed by a nasal exhalation into the ambient atmosphere. Each one of the inhalations drew ambient air into the oral delivery device to sweep in an additional amount of aerosolized ciclesonide. […]

Structures are written as SMILES.

Turning to `CC(C)C(=O)OCC(=O)[C@@]12O[C@H](C3CCCCC3)O[C@@H]1C[C@H]1[C@@H]3CCC4=CC(=O)C=C[C@]4(C)[C@H]3[C@@H](O)C[C@@]12C` [ciclesonide], the “patient-reported symptoms of upper airway cough syndrome following each round” value is recorded as “significant alleviation of the symptoms”.

(Values after US11278684B2, “Device and method of delivering particles in the upper respiratory tract” (SERVICES MEDICAUX ARNOLD ET JOAN ZIDULKA INC., priority 2016, dated 2022).)
